Usually IC50 stands for the concentration at which inhibition is half-maximal.

Where only a bound is given, the exact number is not on record here.

Results on six compounds are retold here after ChEMBL document CHEMBL4004816, “Complementarity of DFT Calculations, NMR Anisotropy, and ECD for the Configurational Analysis of Brevipolides K-O from Hyptis brevipes” (J Nat Prod, 2017).

Common to all, as to type: functional, cell-based
One test has as its system HEp-2. In words: Cytotoxicity against human Hep2 cells assessed as growth inhibition after 72 hrs by SRB assay. The following applies: HEp-2, 72 h.
The test system of a further test is MCF7. The test can be described thus: Cytotoxicity against human MCF7 cells assessed as growth inhibition after 72 hrs by SRB assay. Conditions: MCF7, 72 h.
The test system of the next test is PC-3. In words: Cytotoxicity against human PC3 cells assessed as growth inhibition after 72 hrs by SRB assay. Conditions: PC-3, 72 h. (In SRB staining, fixed cells bind dye roughly in proportion to their protein.)
The test system of another test is KB. The test can be described thus: Cytotoxicity against human KB cells assessed as growth inhibition after 72 hrs by SRB assay.
The subject of a further test is HCT-15. In words: Cytotoxicity against human HCT15 cells assessed as growth inhibition after 72 hrs by SRB assay. Conditions: HCT-15, 72 h.
In another test the test system is HeLa. In words: Cytotoxicity against human HeLa cells assessed as growth inhibition after 72 hrs by SRB assay.

For the compound `COc1ccc(/C=C/C(=O)O[C@@H](C)[C@@H]2CC[C@H]([C@H](O)[C@H]3CC=CC(=O)O3)O2)cc1`, the IC50 is 5.7 µM in the test with HEp-2; more than 10 µM in the test on MCF7; 7.5 µM in the test on PC-3; 1.7 µM with KB; more than 10 µM in the test on HCT-15; 6 µM in the test on HeLa.

Consider `CC[C@]1(O)C[C@@H]2CN(CCc3c([nH]c4ccccc34)[C@@](C(=O)OC)(c3cc4c(cc3OC)N(C)[C@H]3[C@@](O)(C(=O)OC)[C@H](OC(C)=O)[C@]5(CC)C=CCN6CC[C@]43[C@@H]65)C2)C1` [VINBLASTINE], for which the IC50 turned out to be 0.007 µM in the test on HEp-2; 0.004 µM with MCF7; 0.001 µM in the test with PC-3; 0.006 µM in the test with KB; 0.002 µM with HCT-15; 0.001 µM in the test with HeLa.

Turning to `C[C@H](OC(=O)/C=C/c1ccc(O)c(O)c1)[C@@H]1CC[C@H]([C@H](O)[C@H]2CC=CC(=O)O2)O1`, the IC50 is 9.4 µM in the test on HEp-2; more than 10 µM with MCF7; more than 10 µM with PC-3; 4.9 µM in the test on KB; more than 10 µM with HCT-15; 6.9 µM in the test with HeLa.

As to `C[C@H](OC(=O)/C=C\c1ccc(O)cc1)[C@@H]1CC[C@H]([C@H](O)[C@H]2CC=CC(=O)O2)O1`, the IC50 in the test with HEp-2 is 7.7 µM; in the test on MCF7, 9.3 µM; in the test on PC-3, 8.8 µM; with KB, 7.5 µM; with HCT-15, more than 10 µM; with HeLa, 3.3 µM.

In the case of `COc1ccc(/C=C\C(=O)O[C@@H](C)[C@@H]2CC[C@H]([C@H](O)[C@H]3CC=CC(=O)O3)O2)cc1`, the IC50 was more than 10 µM in the test on HEp-2; more than 10 µM in the test on MCF7; 10 µM in the test with PC-3; 9.5 µM with KB; more than 10 µM in the test with HCT-15; 4.2 µM in the test with HeLa.

As for `C[C@H](OC(=O)/C=C/c1ccc(O)cc1)[C@@H]1CC[C@H]([C@H](O)[C@H]2CC=CC(=O)O2)O1`, the 50% inhibitory concentration (IC50) in the test with HEp-2 is more than 10 µM; with MCF7, more than 10 µM; in the test with PC-3 it was more than 10 µM; with KB, 3.6 µM; with HCT-15 it was more than 10 µM; with HeLa, 9.5 µM.
